Experimental data published in patent publication US6630502B2, “Method for preventing, stabilizing or causing regression of atherosclerosis employing a combination of a cholesterol lowering drug and an ace inhibitor” (E.R. Squibb & Sons, Inc., priority 1990, dated 2003).
Marks after values point to notes of the source that are not given here.

What was measured:
[1] = Body weight, mean arterial pressure and heart rate of cholesterol-fed hamsters treated for 8 weeks; type: in vivo, hamster; conditions: at 8 weeks
Procedure: (§1) Male F1 hamsters were fed 0.3% cholesterol and 10% coconut oil.
(§2) Four sets of hamsters were established (n=12-13 per group). The groups were controls, pravastatin (34 mg/kg/day), captopril (100 mg/kg/day) and pravastatin plus captopril (32 and 100 mg/kg/day, respectively). All animals were fed the same atherogenic diet. Pravastatin was delivered via the diet and captopril was gavaged daily. Hamsters in the control and pravastatin groups were gavaged with water. The animals were treated for 8 weeks. At 3 and 6 weeks the animals were fasted overnight and bled to determine plasma cholesterols and triglycerides. At 8 weeks, mean arterial pressure and heart rate were measured and then the animals were fixed by perfusing formalin. The aortic arch was stained with oil red O and the total area of the fatty streak (which consists of macrophage-foam cells) was measured by computer assisted image analysis.

[2] = Plasma lipids of cholesterol-fed hamsters (control and treated); type: in vivo, hamster; conditions: mean ± SD, at 5 weeks, pravastatin 34 mg/kg/day, captopril 100 mg/kg/day, combination 33 + 100 mg/kg/day
Procedure: as §1
as §2, with “The groups were controls, pravastatin (34 mg/kg/day), captopril (100 mg/kg/day) and pravastatin plus captopril (32 and 100 mg/kg/day, respectively).” left out, “At 3 and 6 weeks the animals were fasted overnight and bled to determine plasma cholesterols and triglycerides.” left out

[3] = system: fatty streak (macrophage-foam cells) of the aortic arch; assay: Fatty streak area in the aortic arch (oil red O, image analysis) of cholesterol-fed hamsters; type: in vivo, hamster; conditions: 8 weeks; for Fatty Streak Area: mean ± SD, 6 arches per group, pravastatin 34 mg/kg/day, captopril 100 mg/kg/day, combination 33 + 100 mg/kg/day
Procedure: as §1
as §2, with “The groups were controls, pravastatin (34 mg/kg/day), captopril (100 mg/kg/day) and pravastatin plus captopril (32 and 100 mg/kg/day, respectively).” left out

[4] = Body weight, mean arterial pressure and heart rate of cholesterol-fed hamsters treated for 8 weeks; type: in vivo, hamster; conditions: mean ± SD, combination 33 + 100 mg/kg/day; for HR (Heart Rate) / MAP (Mean Arterial Pressure): at 8 weeks, pravastatin 34 mg/kg/day, captopril 100 mg/kg/day; for Body Weight: hamsters on atherogenic diet, 8 weeks, pravastatin 34 mg/kg/day (diet), captopril 100 mg/kg/day (gavage)
[5] = hypercholesterolemic patients; cited from earlier work

SMILES: CC[C@H](C)C(=O)O[C@H]1C[C@H](O)C=C2C=C[C@H](C)[C@H](CC[C@@H](O)C[C@@H](O)CC(=O)O)[C@H]21 [Pravastatin, pravastatin]
- effect on blood pressure ([1]; 34 mg/kg/day): no effect
- effect on heart rate ([1]; 34 mg/kg/day): no effect
- HDL-C [2]: 117 ± 7^a mg/dl
- TC [2]: 456 ± 107^a mg/dl
- TG [2]: 185 ± 34^a mg/dl
- VLDL + LDL-C [2]: 339 ± 93^a mg/dl
- reduction of fatty streak (lesion) area compared to control group [3]: approximately 50%
- Fatty Streak Area [3]: 248 ± 119^b μm^2 × 10^3
- HR (Heart Rate) [4]: 355 ± 27 beats/min.
- MAP (Mean Arterial Pressure) [4]: 138 ± 13 mmHg
- Body Weight [4]: 139 ± 8 g

SMILES: C[C@H](CS)C(=O)N1CCC[C@H]1C(=O)O [Captopril, 1-[(2S)-3-mercapto-2-methylpropionyl]-L-proline]
- heart rate less than control hamsters ([1]; compared with control hamsters): 7%
- mean arterial pressure lower than controls ([1]; compared with control hamsters): 21%
- HDL-C [2]: 72 ± 23 mg/dL
- TC [2]: 660 ± 94 mg/dL
- TG [2]: 1105 ± 259 mg/dL
- VLDL + LDL-C [2]: 588 ± 83 mg/dL
- reduction of fatty streak (lesion) area compared to control group [3]: approximately 50%
- Fatty Streak Area [3]: 245 ± 154^c μm^2 × 10^3
- HR (Heart Rate) [4]: 348 ± 22^a beats/min.
- MAP (Mean Arterial Pressure) [4]: 110 ± 17^a mmHg
- Body Weight [4]: 133 ± 12 g
- change of serum cholesterol [5]: −18%
- increase of HDL [5]: 27%
